{"source": "patent US20010051646A1", "about": "“Method for the improvement of islet signaling in diabetes mellitus and for its prevention” (priority 2000, published 2001)", "assay_type_in_all_cases": "in vivo, rat", "key": {"Male Zucker fa/fa rats [1]": {"test_system": "Male Zucker fa/fa rats", "test": "Repeated once-daily oral dosing: morning blood glucose and plasma insulin", "experimental": "The parameters monitored were morning blood glucose and plasma insulin levels. In a day-night profile, glycemia and insulinaemia were monitored from day 16 to day 17. An OGTT was performed finally on day 21 to monitor blood glucose and plasma insulin kinetics to assess changes in glucose tolerance. Glibenclamide (DAB 1996; R011150/33372) was donated by Berlin-Chemie (Berlin, Germany). Male Zucker (fa/fa) rats of the body weight class of 300 g were purchased from Charles River (Sulzfeld, Germany).\nHousing Conditions: Animals were kept single-housed under conventional conditions with controlled temperature (22±2° C.) on a 12/12 hours light/dark cycle (light on at 06:00 a.m.). Standard pellets (ssniff®, Soest, Germany) and tap water acidified with HCl were allowed ad libitum.\nCatheterization of Carotid Artery: After one week of adaptation carotid catheters were implanted in the rats under general anesthesia (injection of 0.25 ml/kg i.p. Rompun® [2%], Bayer, Germany) and 0.5 ml/kg i.p. Velonarkon® (Arzneimittelwerk Dresden, Germany). The animals were allowed to recover for one week. The catheter was flushed with heparin-saline (100 IU/ml) three times per week.\nThereafter, the non-diabetic Wistar rats were treated orally once daily with RP (5 mg/kg b.w.) or TP (21.61 mg/kg b.w.) and the diabetic Zucker rats were treated orally once daily with RP (1 mg/kg b.w.) or TP (21.61 mg/kg b.w.) for 21 days at 05.00 p.m. (before regular food intake in the dark phase). The controls were given 1% cellulose solution orally (5 ml/kg). Blood samples were taken every morning at 07.30 a.m. from tail veins for measurement of blood glucose and plasma insulin. The last blood samples of this part of the program were taken at 07.30 a. m. on the 15th day to measure blood glucose and plasma insulin. The oral drug therapy was continued for one week. Recording the day-night profile under the above therapy blood glucose (Δt=3 h) and plasma insulin (Δt=3-6 h) were monitored from day 16 (at 05.00 p.m. beginning) to day 17 (at 02.00 p.m. end).\nBlood glucose: Glucose levels were measured using the glucose oxidase procedure (Super G Glukosemeβgerät; Dr. Müller Gerätebau, Freital, Germany).\nPlasma insulin: Insulin concentrations were assayed by the antibody RIA method (LINCO Research, Inc. St. Charles, Mo., USA)."}, "Male Zucker fa/fa rats [2]": {"test_system": "Male Zucker fa/fa rats", "test": "Day-night profile of glycemia and insulinemia, day 16 to day 17 of treatment", "experimental": "The parameters monitored were morning blood glucose and plasma insulin levels. […] An OGTT was performed finally on day 21 to monitor blood glucose and plasma insulin kinetics to assess changes in glucose tolerance. Glibenclamide (DAB 1996; R011150/33372) was donated by Berlin-Chemie (Berlin, Germany). Male Zucker (fa/fa) rats of the body weight class of 300 g were purchased from Charles River (Sulzfeld, Germany). […] Thereafter, the non-diabetic Wistar rats were treated orally once daily with RP (5 mg/kg b.w.) or TP (21.61 mg/kg b.w.) and the diabetic Zucker rats were treated orally once daily with RP (1 mg/kg b.w.) or TP (21.61 mg/kg b.w.) for 21 days at 05.00 p.m. (before regular food intake in the dark phase). The controls were given 1% cellulose solution orally (5 ml/kg). […] The oral drug therapy was continued for one week. […] Blood glucose: Glucose levels were measured using the glucose oxidase procedure (Super G Glukosemeβgerät; Dr. Müller Gerätebau, Freital, Germany). Plasma insulin: Insulin concentrations were assayed by the antibody RIA method (LINCO Research, Inc. St. Charles, Mo., USA)."}, "Male Zucker fa/fa rats [3]": {"test_system": "Male Zucker fa/fa rats", "test": "OGTT after 21 days treatment: blood glucose and plasma insulin", "experimental": "The parameters monitored were morning blood glucose and plasma insulin levels. […] An OGTT was performed finally on day 21 to monitor blood glucose and plasma insulin kinetics to assess changes in glucose tolerance. Glibenclamide (DAB 1996; R011150/33372) was donated by Berlin-Chemie (Berlin, Germany). Male Zucker (fa/fa) rats of the body weight class of 300 g were purchased from Charles River (Sulzfeld, Germany). Repeated Dosing: 30 male non-diabetic Wistar and 30 male diabetic Zucker rats were randomized to RP (Reference Product: glibenclamide)-, TP- (jest Product: […] Thereafter, the non-diabetic Wistar rats were treated orally once daily with RP (5 mg/kg b.w.) or TP (21.61 mg/kg b.w.) and the diabetic Zucker rats were treated orally once daily with RP (1 mg/kg b.w.) or TP (21.61 mg/kg b.w.) for 21 days at 05.00 p.m. (before regular food intake in the dark phase). The controls were given 1% cellulose solution orally (5 ml/kg). […] The oral drug therapy was continued for one week. […] OGTT: A final OGTT was performed on day 21 with blood sampling from the tail vein. […] The latter were immediately centrifuged and the plasma fractions were stored at −20 ° C. for insulin analysis. Blood glucose: Glucose levels were measured using the glucose oxidase procedure (Super G Glukosemeβgerät; Dr. Müller Gerätebau, Freital, Germany). Plasma insulin: Insulin concentrations were assayed by the antibody RIA method (LINCO Research, Inc. St. Charles, Mo., USA)."}}, "data": [{"smiles": "COc1ccc(Cl)cc1C(=O)NCCc1ccc(S(=O)(=O)NC(=O)NC2CCCCC2)cc1", "note": "[glibenclamide, reference compound]", "values": [{"measurement": "Plasma insulin during 14 days in comparison to the control animals", "setting": "Male Zucker fa/fa rats [1]; rat, in vivo", "value": "insulin increase to significantly higher concentrations than in control animals"}, {"measurement": "Increase of morning blood glucose", "setting": "Male Zucker fa/fa rats [1]; within two days of therapy", "value": "about 1.5 mmol/l"}, {"measurement": "Mean blood glucose, day-night profile", "setting": "Male Zucker fa/fa rats [2]; 02.00 p.m. next day, RP 1 mg/kg, TP 21.61 mg/kg orally once daily", "value": "7.34 ± 0.77", "unit": "mmol/L"}, {"measurement": "Plasma insulin, day-night profile", "setting": "Male Zucker fa/fa rats [2]; 02.00 p.m. the next day", "value": "58.3 ± 7.3", "unit": "ng/mL"}, {"measurement": "Plasma insulin, day-night profile", "setting": "Male Zucker fa/fa rats [2]; 05.00 a.m. (maximum)", "value": "76.3 ± 8.6", "unit": "ng/mL"}, {"measurement": "Plasma insulin, day-night profile", "setting": "Male Zucker fa/fa rats [2]; 05.00 p.m., RP 1 mg/kg, TP 21.61 mg/kg orally once daily", "value": "50.0 ± 8.2", "unit": "ng/mL"}, {"measurement": "Plasma insulin, day-night profile", "setting": "Male Zucker fa/fa rats [2]; 08.00 p.m.", "value": "57.3 ± 8.2", "unit": "ng/mL"}, {"measurement": "Mean blood glucose, day-night profile", "setting": "Male Zucker fa/fa rats [2]; 11.00 a.m., RP 1 mg/kg, TP 21.61 mg/kg orally once daily", "value": "7.66 ± 1.22", "unit": "mmol/L"}, {"measurement": "Mean blood glucose, day-night profile", "setting": "Male Zucker fa/fa rats [2]; 11.00 p.m., RP 1 mg/kg, TP 21.61 mg/kg orally once daily", "value": "14.80 ± 1.46", "unit": "mmol/L"}, {"measurement": "Mean blood glucose, day-night profile", "setting": "Male Zucker fa/fa rats [2]; day 16, 05.00 p.m. before drug application, RP 1 mg/kg, TP 21.61 mg/kg orally once daily", "value": "7.96 ± 1.13", "unit": "mmol/L"}, {"measurement": "Increase of insulin output compared to the control", "setting": "Male Zucker fa/fa rats [2]; obese Zucker rat, subchronic treatment", "value": 27, "unit": "%"}, {"measurement": "Glycemia at the last drug application", "setting": "Male Zucker fa/fa rats [3]; 05.00 p.m., night before day 21", "value": "8.81 ± 1.21", "unit": "mmol/L"}, {"measurement": "G-AUC in comparison to the placebo application", "setting": "Male Zucker fa/fa rats [3]; day 21", "value": "increased"}, {"measurement": "Blood glucose during OGTT", "setting": "Male Zucker fa/fa rats [3]; day 21, 50 min", "value": "16.33 ± 0.98", "unit": "mmol/L"}, {"measurement": "Blood glucose during OGTT", "setting": "Male Zucker fa/fa rats [3]; day 21, 80 min", "value": "16.24 ± 1.09", "unit": "mmol/L"}, {"measurement": "Blood glucose during OGTT", "setting": "Male Zucker fa/fa rats [3]; day 21, 100 min", "value": "15.13 ± 0.76", "unit": "mmol/L"}, {"measurement": "Blood glucose during OGTT", "setting": "Male Zucker fa/fa rats [3]; day 21, 120 min", "value": "14.81 ± 0.66", "unit": "mmol/L"}, {"measurement": "Glycemia after overnight fasting (basal, before OGTT)", "setting": "Male Zucker fa/fa rats [3]; day 21, morning (07.30 a. m.)", "value": "4.91 ± 0.37", "unit": "mmol/L"}, {"measurement": "Fasting plasma insulin at the beginning of the OGTT", "setting": "Male Zucker fa/fa rats [3]; day 21, overnight fasting, listed as RP", "value": "~12.5", "unit": "ng/mL"}, {"measurement": "Blood glucose increase after the glucose load", "setting": "Male Zucker fa/fa rats [3]; day 21 OGTT", "value": "about 11 mmol"}, {"measurement": "Plasma insulin after a glucose stimulus", "setting": "Male Zucker fa/fa rats [3]; day 21 OGTT", "value": "remained mostly unchanged"}, {"measurement": "Glucose area under the curve (G-AUC0-120 min)", "setting": "Male Zucker fa/fa rats [3]; day 21 OGTT, CO-group 823±41", "value": "1096 ± 76", "unit": "mmol·min/L"}]}]}
